The record followed here is ChEMBL document CHEMBL1201862, “PubChem BioAssay data set” (2004).

Among the test systems are SK-OV-3; DU-145; U-251; COLO 205; KM12; T47D; MDA-MB-435; SK-MEL-28; HT-29; NCI-H226; MOLT-4; CAKI-1; UACC-257; UACC-62; HCC 2998; HCT-15; OVCAR-3; ACHN; NCI-H23; IGROV-1.
Holding throughout (experiment): NCI-60 cell line screen, 48 h

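Each compound was tested at five concentrations against cells in 96-well plates for 48 hours. GI50 = concentration required for 50% inhibition of growth.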 Active and inactive are the calls of the source. Cut-off read from the data, not from the text of the source: active = GI50 up to about 1.1 µM and inactive = higher. Where only a bound is given, the exact number is not on record here.

In the case of `O=C(N/N=C(COc1ccc(Cl)cc1)\N=C\c1cccnc1)c1ccncc1`, the GI50 was > 100 µM (inactive) with SK-OV-3; > 100 µM (inactive) in the test with DU-145; > 100 µM (inactive) in the test with U-251; 96.8 µM (inactive) in the test on COLO 205; 71 µM (inactive) in the test on KM12; > 100 µM (inactive) in the test on T47D. The GI50 is 26.3 µM (inactive) in the test on MDA-MB-435; > 100 µM (inactive) in the test with SK-MEL-28; > 100 µM (inactive) in the test on HT-29; 68.2 µM (inactive) with NCI-H226; 84.3 µM (inactive) in the test with MOLT-4; > 100 µM (inactive) with CAKI-1. Moreover, the GI50 in the test on UACC-257 was 99.5 µM (inactive); in the test on UACC-62 it was 69 µM (inactive); in the test with HCC 2998, 88.1 µM (inactive); with HCT-15, 85.9 µM; in the test with OVCAR-3, > 100 µM (inactive); in the test with ACHN, > 100 µM (inactive). The GI50 in the test with NCI-H23 and in the test with IGROV-1 was > 100 µM (inactive) throughout.
Turning to `COc1c2cc([N+](=O)[O-])cc1CNC(=O)CN1CCOCCOCCN(CCOCCOCC1)CC(=O)NC2`, the GI50 in the test with SK-OV-3, with DU-145, in the test on U-251, in the test on COLO 205, in the test on KM12 and in the test with T47D was > 100 µM (inactive) each time. Moreover, the GI50 in the test with MDA-MB-435, in the test with SK-MEL-28, in the test on HT-29, in the test with NCI-H226, in the test with MOLT-4 and with CAKI-1 was > 100 µM (inactive) throughout. Moreover, the GI50 was > 100 µM (inactive) in the test with UACC-257; > 100 µM (inactive) in the test with UACC-62; > 100 µM (inactive) with HCC 2998; above 100 µM with HCT-15; > 100 µM (inactive) in the test with OVCAR-3; > 100 µM (inactive) in the test on ACHN. Moreover, the GI50 with NCI-H23 and in the test with IGROV-1 was > 100 µM (inactive) throughout.
Turning to `O=C(Nc1ccc(Nc2ccc3c(c2)C(=O)c2ccccc2C3=O)c2c1C(=O)c1ccccc1C2=O)c1ccccc1`, the GI50 was 67.9 µM (inactive) in the test on SK-OV-3; 80.2 µM (inactive) in the test on DU-145; 19.5 µM (inactive) in the test on U-251; 51.6 µM (inactive) in the test on COLO 205; 34.2 µM (inactive) with KM12; 42.1 µM (inactive) with T47D. The GI50 was 3.53 µM (inactive) in the test with MDA-MB-435; > 100 µM (inactive) in the test on SK-MEL-28; 43.7 µM (inactive) in the test on HT-29; > 100 µM (inactive) in the test with NCI-H226; 11.3 µM (inactive) in the test with MOLT-4; > 100 µM (inactive) in the test with CAKI-1. Besides, the GI50 in the test with UACC-257 was > 100 µM (inactive); in the test on UACC-62, > 100 µM (inactive); with HCC 2998, 6.84 µM (inactive); in the test on HCT-15, 7.62 µM; in the test on OVCAR-3, 16 µM (inactive); with ACHN, > 100 µM (inactive). In addition, the GI50 in the test with NCI-H23 was 79.4 µM (inactive); with IGROV-1, 32.3 µM (inactive).
As to `Cc1cc(Cl)ccc1Nc1nc2c(s1)C(=O)c1ccccc1C2=O`, the GI50 is 8.49 µM (inactive) in the test on SK-OV-3; 1.68 µM (inactive) with DU-145; 3.28 µM (inactive) in the test on U-251; 4.33 µM (inactive) in the test with COLO 205; 6.01 µM (inactive) in the test on KM12; 2.02 µM (inactive) in the test with T47D. Besides, the GI50 is 0.378 µM (active) in the test with MDA-MB-435; 1.98 µM (inactive) in the test on SK-MEL-28; 18.3 µM (inactive) in the test with HT-29; 6.34 µM (inactive) in the test with NCI-H226; 1.86 µM (inactive) with MOLT-4; 6.3 µM (inactive) in the test with CAKI-1. For the same compound, the GI50 is 2.53 µM (inactive) with UACC-257; 2.5 µM (inactive) with UACC-62; 6.34 µM (inactive) with HCC 2998; 1.85 µM with HCT-15; 1.43 µM (inactive) in the test with OVCAR-3; 3.98 µM (inactive) in the test on ACHN. In addition, the GI50 in the test with NCI-H23 was 1.84 µM (inactive); with IGROV-1 it was 4.51 µM (inactive).
For the compound `OCCCc1cc(O)c2c(c1)C(CO)C(c1ccc(O)c(O)c1)O2` (stereo not given), the GI50 in the test with SK-OV-3 was > 100 µM (inactive); with DU-145, > 100 µM (inactive); in the test on U-251, > 100 µM (inactive); in the test with COLO 205, > 100 µM (inactive); in the test on KM12, > 100 µM (inactive); in the test with T47D it was 80.2 µM (inactive). In addition, the GI50 in the test with MDA-MB-435, in the test on SK-MEL-28, in the test with HT-29, in the test with NCI-H226, in the test on MOLT-4 and in the test on CAKI-1 was > 100 µM (inactive) in each case. Besides, the GI50 was > 100 µM (inactive) in the test with UACC-257; > 100 µM (inactive) with UACC-62; > 100 µM (inactive) in the test on HCC 2998; above 100 µM in the test on HCT-15; > 100 µM (inactive) with OVCAR-3; > 100 µM (inactive) in the test with ACHN. The GI50 in the test with NCI-H23 and with IGROV-1 was > 100 µM (inactive) each time.
For the compound `CCOC(=O)/C=C/CCC(C)(C)COC(C)=O`, the GI50 in the test with SK-OV-3, in the test on DU-145, in the test on U-251, with COLO 205, in the test on KM12 and in the test with T47D was > 10 µM (inactive) in each case. Besides, the GI50 in the test with MDA-MB-435, in the test with SK-MEL-28, in the test on HT-29, with NCI-H226, in the test with MOLT-4 and in the test with CAKI-1 was > 10 µM (inactive) in each case. Besides, the GI50 was > 10 µM (inactive) with UACC-257; > 10 µM (inactive) with UACC-62; > 10 µM (inactive) with HCC 2998; above 10 µM with HCT-15; > 10 µM (inactive) with OVCAR-3; > 10 µM (inactive) in the test on ACHN. Also, the GI50 in the test on NCI-H23 and with IGROV-1 was > 10 µM (inactive) throughout.
For the compound `COc1ccc2c(c1OC)C(C(Cl)(Cl)Cl)N1CCc3cc4c(cc3C1=C2)OCO4` (stereo not given), the GI50 is 23.9 µM (inactive) with SK-OV-3; 16.3 µM (inactive) in the test on DU-145; 3.69 µM (inactive) with U-251; 5.45 µM (inactive) with COLO 205; 7.6 µM (inactive) in the test on KM12; 10.8 µM (inactive) in the test on T47D. For the same compound, the GI50 is 11.1 µM (inactive) in the test with MDA-MB-435; 12 µM (inactive) in the test with SK-MEL-28; 25.8 µM (inactive) with HT-29; 10.9 µM (inactive) in the test with NCI-H226; 16 µM (inactive) in the test on MOLT-4; 40.8 µM (inactive) in the test with CAKI-1. Moreover, the GI50 in the test with UACC-257 was 7.16 µM (inactive); with UACC-62, 11.8 µM (inactive); in the test with HCC 2998 it was 10.8 µM (inactive); in the test with HCT-15, 33.3 µM; in the test with OVCAR-3, 7.43 µM (inactive); in the test on ACHN it was 22.9 µM (inactive). In addition, the GI50 in the test on NCI-H23 was 12.9 µM (inactive); in the test with IGROV-1 it was 25.5 µM (inactive).
In the case of `O=C1CNc2cc(N3CCN(c4ccccc4)CC3)ccc2N1`, the GI50 with SK-OV-3, with DU-145, in the test with U-251, in the test on COLO 205, with KM12 and with T47D was > 100 µM (inactive) throughout. The GI50 in the test with MDA-MB-435, in the test with SK-MEL-28, in the test on HT-29, in the test on NCI-H226, in the test on MOLT-4 and in the test on CAKI-1 was > 100 µM (inactive) throughout. Moreover, the GI50 with UACC-257 was > 100 µM (inactive); with UACC-62, > 100 µM (inactive); in the test on HCC 2998 it was > 100 µM (inactive); in the test on HCT-15, above 100 µM; with OVCAR-3, > 100 µM (inactive); with ACHN, > 100 µM (inactive). The GI50 in the test on NCI-H23 and in the test with IGROV-1 was > 100 µM (inactive) each time.
In the case of `Cc1cn(CCCCCOC(=O)NC(CCCNC(N)=O)C(=O)O)c(=O)[nH]c1=O` (stereo not given), the GI50 with SK-OV-3, in the test with DU-145, with U-251, with COLO 205, in the test on KM12 and in the test with T47D was > 100 µM (inactive) in each case. In addition, the GI50 with MDA-MB-435, with SK-MEL-28, in the test on HT-29, in the test on NCI-H226, in the test with MOLT-4 and in the test on CAKI-1 was > 100 µM (inactive) throughout. Also, the GI50 with UACC-257 is > 100 µM (inactive); in the test with UACC-62, > 100 µM (inactive); with HCC 2998, > 100 µM (inactive); in the test with HCT-15 it was above 100 µM; in the test on OVCAR-3, > 100 µM (inactive); in the test with ACHN it was > 100 µM (inactive). The GI50 in the test on NCI-H23 is > 100 µM (inactive); with IGROV-1, 65.3 µM (inactive).
Turning to `Nc1nn2c(=O)c3ccccc3nc2s1`, the GI50 was > 100 µM (inactive) in the test with SK-OV-3; > 100 µM (inactive) in the test on DU-145; > 100 µM (inactive) with U-251; 35.4 µM (inactive) with COLO 205; > 100 µM (inactive) in the test with KM12; 87.3 µM (inactive) with T47D. Moreover, the GI50 was > 100 µM (inactive) in the test with MDA-MB-435; > 100 µM (inactive) with SK-MEL-28; 41.2 µM (inactive) in the test with HT-29; 23.9 µM (inactive) in the test with NCI-H226; 23.3 µM (inactive) in the test on MOLT-4; > 100 µM (inactive) with CAKI-1. In addition, the GI50 is > 100 µM (inactive) in the test with UACC-257; > 100 µM (inactive) with UACC-62; > 100 µM (inactive) with HCC 2998; 44.9 µM with HCT-15; > 100 µM (inactive) in the test on OVCAR-3; > 100 µM (inactive) in the test on ACHN. The GI50 in the test with NCI-H23 was 28.4 µM (inactive); with IGROV-1, 65.5 µM (inactive).
